Measurements as given in patent publication US20240398728A1, “STERILE TOPICAL SALINE PUTRESCINE FORMULATION AND USES THEREOF” (VIVIER CANADA INC., priority 2018, published 2024).

What was measured:
[1] = Solubility of ingredients in water noted during manufacturing; format: physicochemical; conditions: noted by Applicant during manufacturing
Excerpt: (§1) As such, a first heating step (to about 40 degrees Celsius) while stirring, together with the sequential addition of Allantoin followed by HPMC allowed to improve the manufacturing procedure. Propanediol was also shown to help solubilization of active ingredients in the mixture. […] Once applied on the skin, the alcohol rapidly evaporates and promotes adherence of the film forming agent (e.g., PVP) on the skin. The presence of alcohol also promotes evaporation of water. Finally, because the presence of sodium salt (saline) could interfere with active ingredients in the formulation, it is preferentially added at the end of the process.
as §1, with “the PVP (which forms a film)” for “the film forming agent (e.g., PVP)”, “also promoted” for “also promotes”, “it was” for “it is”, “process. […]” for “process.”

[2] = molecular target: fibroblast tissue transglutaminase (Homo sapiens, UniProt P21980); conditions: in vitro and in vivo, topical, compared to controls; cited from earlier work
Sequence of fibroblast tissue transglutaminase (P21980 whole entry): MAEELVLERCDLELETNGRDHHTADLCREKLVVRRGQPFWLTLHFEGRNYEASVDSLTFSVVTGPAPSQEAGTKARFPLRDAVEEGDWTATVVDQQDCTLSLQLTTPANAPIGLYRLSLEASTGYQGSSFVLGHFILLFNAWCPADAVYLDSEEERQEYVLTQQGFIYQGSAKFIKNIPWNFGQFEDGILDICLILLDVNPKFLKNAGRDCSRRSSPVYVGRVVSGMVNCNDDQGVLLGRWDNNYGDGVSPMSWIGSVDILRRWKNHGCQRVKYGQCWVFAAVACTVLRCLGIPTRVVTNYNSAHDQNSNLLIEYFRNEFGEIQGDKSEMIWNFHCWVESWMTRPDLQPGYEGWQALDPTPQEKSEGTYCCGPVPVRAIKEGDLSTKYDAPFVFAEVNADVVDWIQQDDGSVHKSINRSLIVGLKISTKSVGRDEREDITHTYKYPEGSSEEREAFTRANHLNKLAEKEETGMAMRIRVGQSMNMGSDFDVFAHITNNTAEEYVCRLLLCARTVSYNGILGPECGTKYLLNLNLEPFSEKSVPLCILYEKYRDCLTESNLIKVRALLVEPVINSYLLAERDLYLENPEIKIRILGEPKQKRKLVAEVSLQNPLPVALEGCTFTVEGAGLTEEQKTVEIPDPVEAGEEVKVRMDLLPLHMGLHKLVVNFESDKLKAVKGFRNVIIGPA

[3] = tested on: epidermis of eroded skin; conditions: topical; animals and human epidermis; cited from earlier work

Row | Compound | solubility in water [1] | collagen cross-linking [2] | effect on the epidermis of eroded skin (barrier function, thickness of the stratum lucidum) [3]
1 | NC(=O)NC1NC(=O)NC1=O (stereo not shown) [Allantoin] | not very soluble in water |  | 
2 | Alpha Bisabolol | not to be very soluble in water |  | 
3 | NCCCCN [putrescine, 1,4-diaminobutane] |  | reduce collagen cross-linking in vitro and in vivo | increasing its barrier function as well as the thickness of the stratum lucidum
